Assay [1] deals with PI3Kalpha (Homo sapiens (Human), UniProt P42336). The assay can be described thus: HTRF PI3K biochemical assay, alpha isoform (selectivity versus delta). Particulars: relative ratio PI3K-alpha IC50 value / PI3K-delta IC50 value. An excerpt:
(§1) HTRF PI3K Biochemical Assay to Measure Intrinsic Potency of Compound Inhibitors
(§2) The PI3-Kinase biochemical assays were developed to measure the intrinsic potency and compound dependent inhibition of the alpha, beta, delta, and gamma PI3K isoform enzymes. This assay was developed and further optimized from a kit produced by Upstate (Millipore catalog #33-047) (Millipore Sigma, Billerica Mass., USA) and has been configured for high throughput screening (HTS) and structure-activity relationship (SAR) screening. Briefly, this procedure exploits the exquisite specificity and high affinity binding of […] phosphatidyl(3,4,5)triphosphate (PIP3) to the GRP1 pleckstrin homology (PH) domain to generate the signal. In the absence of PIP3, an HTRF (Homogeneous Time-Resolved Fluorescence energy transfer) complex is formed consisting of europium (u)-labeled anti-GST, GST tagged GRP1-PH domain, biotin-PIP3 (biotinylated-PIP3) and streptavidin conjugated APC (Allophycocyanin). The native PIP3 produced by PI3-Kinase activity disrupts in a competitive manner the biotin-PIP3 from the pleckstrin homology (PH) domain, resulting in the loss of energy transfer (HTRF complex) and a decrease in the signal. The format of this assay is the same for all 4 isoforms of PI3K; the differences lie in the concentration of enzyme used to achieve robust assay window. The alpha, beta, and delta assays are run at 0.5, 1, and 0.3 nM enzymes and the gamma assay is run at 5 nM enzyme. The ATP concentration is 100 uM in the alpha, beta, and delta assays and 50 uM adenosine triphosphate (ATP) in the gamma assay. All reactions are run at 5 uM PIP2.
(§3) Compounds are serially diluted (3-fold in 100% DMSO) across a 384-well polypropylene source plated from column 3 to column 12 and column 13 to column 22, to yield 10 concentration dose response for each test compound. Columns 1, 2, 23 and 24 contain either only DMSO or pharmacological known control inhibitor. Once titrations are made, 2.5 nL of the compounds on 384 well plates are reformatted and transferred by acoustic dispense in quadruplicates to a 1536 assay plate (Greiner) to assay across all four PI3K isoform enzymes.
(§4) The PI3-Kinase biochemical assay was optimized using the HTRF kit provided by Upstate (Millipore). The assay kit contains six reagents: 1) 4× Reaction Buffer; 2) native PIP2 (substrate); 3) Stop (EDTA); 4) Detection Mix A (Streptavidin-APC); 5) Detection Mix B (Eu-labeled Anti-GST plus GST-tagged PH-domain); 6) Detection Mix C. In addition, the following items were obtained or purchased; PI3Kinase (catalog #'s alpha 14-602, beta 14-603, gamma 14-558 and delta 14-604 from Upstate Biotechnology now EMD Millipore, Mahopac, N.Y., USA), dithiothreitol (Sigma-Aldrich Corp. (St. Louis, Mo., USA) Catalog #D-5545), Adenosine-5′ triphosphate (InVitrogen (Waltham, Mass., USA), Cat#AS001A), native PIP3 (PI(3,4,5)P3, diC8, H^+, CELLSIGNALS, INC., (Columbus, Ohio, USA) Cat #907) DMSO ((Sigma-Aldrich Corp. (St. Louis, Mo., USA) Catalog #472301).
(§5) PI3Kinase Reaction Buffer is prepared by dilution the stock 1:4 with de-ionized water. DTT (DL-Dithiothreitol), phosphatidylinositol 4,5-bisphosphate (PIP2) and Biotin-PIP3 were added to 1536 assay plate at a final concentration of 5 mM, […] and 25 nM on the day of use. Enzyme addition and compound pre-incubation are initiated by the addition of 1.25 ul of PI3K (at twice its final concentration) in the 1× reaction buffer to all wells using a BioRaptr™ (Beckman Coulter, Waltham, Mass. USA). Plates are incubated at room temperature for 15 minutes. Reactions are initiated by addition of 1.25 ul of 2× substrate solution (PIP2 and ATP in 1× reaction buffer) using BioRaptr™. Plates are incubated in humidified chamber at room temperature for one hour. Reactions are quenched by addition of 0.625 uL of stop solution to all wells using the BioRaptr™. […]

Assay [2] concerns the target PI3Kdelta (Homo sapiens (Human), UniProt O00329). The assay can be described thus: HTRF PI3K biochemical assay, delta isoform. The settings on record: 0.3 nM enzyme, 100 uM ATP, 5 uM PIP2, form screened per table.
Text: as §1, §2, §3, §4, §5

PI3Kdelta, sequence (O00329 whole entry, canonical isoform): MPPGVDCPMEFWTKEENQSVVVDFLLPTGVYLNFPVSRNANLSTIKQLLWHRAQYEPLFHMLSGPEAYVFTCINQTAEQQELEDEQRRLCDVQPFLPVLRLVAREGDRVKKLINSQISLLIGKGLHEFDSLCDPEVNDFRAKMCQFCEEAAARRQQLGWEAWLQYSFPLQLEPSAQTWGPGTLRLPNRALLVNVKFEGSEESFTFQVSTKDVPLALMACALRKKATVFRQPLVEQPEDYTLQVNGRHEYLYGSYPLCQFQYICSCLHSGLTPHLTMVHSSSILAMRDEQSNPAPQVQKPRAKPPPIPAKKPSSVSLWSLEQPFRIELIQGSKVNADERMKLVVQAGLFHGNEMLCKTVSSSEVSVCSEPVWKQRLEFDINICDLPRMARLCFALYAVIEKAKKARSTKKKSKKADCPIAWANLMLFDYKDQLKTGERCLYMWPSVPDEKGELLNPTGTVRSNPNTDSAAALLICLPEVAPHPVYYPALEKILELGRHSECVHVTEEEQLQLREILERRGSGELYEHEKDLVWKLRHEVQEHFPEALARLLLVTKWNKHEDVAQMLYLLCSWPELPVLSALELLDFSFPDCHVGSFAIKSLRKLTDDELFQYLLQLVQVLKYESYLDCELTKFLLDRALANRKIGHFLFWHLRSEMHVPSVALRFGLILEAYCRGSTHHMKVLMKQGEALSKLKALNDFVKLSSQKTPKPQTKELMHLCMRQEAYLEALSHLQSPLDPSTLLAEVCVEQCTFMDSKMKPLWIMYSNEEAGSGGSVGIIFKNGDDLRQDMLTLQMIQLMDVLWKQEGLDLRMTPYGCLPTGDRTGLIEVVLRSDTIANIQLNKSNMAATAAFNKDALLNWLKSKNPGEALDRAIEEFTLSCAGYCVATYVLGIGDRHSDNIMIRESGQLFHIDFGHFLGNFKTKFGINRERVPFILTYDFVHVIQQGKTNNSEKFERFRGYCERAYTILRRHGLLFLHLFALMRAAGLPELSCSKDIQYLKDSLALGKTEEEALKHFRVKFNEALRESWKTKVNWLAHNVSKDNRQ
PI3Kdelta, sequence (P27986 whole entry partner, canonical isoform): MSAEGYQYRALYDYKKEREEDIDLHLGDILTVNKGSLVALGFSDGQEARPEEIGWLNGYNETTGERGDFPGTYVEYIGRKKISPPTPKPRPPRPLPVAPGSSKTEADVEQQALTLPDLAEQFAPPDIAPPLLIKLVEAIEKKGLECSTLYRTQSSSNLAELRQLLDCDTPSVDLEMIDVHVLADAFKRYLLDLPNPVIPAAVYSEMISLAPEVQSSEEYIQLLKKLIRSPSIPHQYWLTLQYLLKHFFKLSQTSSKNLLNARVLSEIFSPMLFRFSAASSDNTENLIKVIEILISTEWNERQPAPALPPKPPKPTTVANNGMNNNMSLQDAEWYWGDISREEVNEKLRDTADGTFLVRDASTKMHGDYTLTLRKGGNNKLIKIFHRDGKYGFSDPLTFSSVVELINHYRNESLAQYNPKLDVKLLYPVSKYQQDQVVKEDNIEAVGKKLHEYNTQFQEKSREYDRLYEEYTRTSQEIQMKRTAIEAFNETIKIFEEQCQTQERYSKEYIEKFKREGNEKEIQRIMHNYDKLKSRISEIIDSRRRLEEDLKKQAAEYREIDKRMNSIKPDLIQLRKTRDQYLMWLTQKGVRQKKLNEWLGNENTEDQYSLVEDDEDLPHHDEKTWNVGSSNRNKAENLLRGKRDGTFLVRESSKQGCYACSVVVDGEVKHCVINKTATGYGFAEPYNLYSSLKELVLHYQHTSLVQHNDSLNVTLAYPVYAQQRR
PI3Kalpha, sequence (P42336 whole entry, canonical isoform): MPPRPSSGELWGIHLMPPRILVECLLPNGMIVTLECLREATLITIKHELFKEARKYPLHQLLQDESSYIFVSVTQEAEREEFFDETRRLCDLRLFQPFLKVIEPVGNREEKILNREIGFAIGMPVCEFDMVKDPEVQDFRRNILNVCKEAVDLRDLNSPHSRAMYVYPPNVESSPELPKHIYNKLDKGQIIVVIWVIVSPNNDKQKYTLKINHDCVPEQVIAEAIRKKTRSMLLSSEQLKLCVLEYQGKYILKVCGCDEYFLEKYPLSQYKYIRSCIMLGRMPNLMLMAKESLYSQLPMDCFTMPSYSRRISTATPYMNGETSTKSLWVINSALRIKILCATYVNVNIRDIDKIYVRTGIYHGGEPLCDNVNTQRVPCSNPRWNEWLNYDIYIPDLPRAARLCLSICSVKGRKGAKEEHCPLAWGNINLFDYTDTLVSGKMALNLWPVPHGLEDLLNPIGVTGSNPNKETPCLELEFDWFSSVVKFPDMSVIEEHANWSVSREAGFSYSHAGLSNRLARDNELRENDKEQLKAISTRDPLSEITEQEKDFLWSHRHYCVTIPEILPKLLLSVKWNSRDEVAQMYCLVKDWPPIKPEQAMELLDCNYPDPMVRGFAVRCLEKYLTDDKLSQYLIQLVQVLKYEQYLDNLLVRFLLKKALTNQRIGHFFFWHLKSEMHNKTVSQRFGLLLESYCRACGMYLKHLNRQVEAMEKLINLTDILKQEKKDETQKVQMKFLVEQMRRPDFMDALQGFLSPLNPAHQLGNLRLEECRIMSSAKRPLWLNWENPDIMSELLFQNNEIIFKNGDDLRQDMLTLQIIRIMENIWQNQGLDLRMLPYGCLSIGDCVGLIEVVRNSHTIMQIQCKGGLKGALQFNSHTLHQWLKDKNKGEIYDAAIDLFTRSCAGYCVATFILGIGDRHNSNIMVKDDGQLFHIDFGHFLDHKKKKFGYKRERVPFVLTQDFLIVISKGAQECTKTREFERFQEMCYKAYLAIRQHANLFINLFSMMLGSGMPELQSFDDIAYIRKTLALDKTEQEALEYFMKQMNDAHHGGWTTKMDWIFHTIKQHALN
PI3Kalpha, sequence (P27986 whole entry partner, canonical isoform): as the sequence (P27986 whole entry partner, canonical isoform) above

`Cn1cc(-c2ncc(C#N)c(N3CC4C[C@H]3CN4C(=O)C3(C)COC3)n2)cn1` (stereo in doubt) [Compound 2-7, 4-{(1S,4R)-5-[(3-methyloxetan-3-yl)carbonyl]-2,5-diazabicyclo[2.2.1]hept-2-yl}-2-(1-methyl-1H-pyrazol-4-yl)pyrimidine-5-carbonitrile]: in assay [1], the “Selectivity versus PI3Kalpha” value is listed as over 10. The compound also had an IC50 in assay [2] of 320 nM.
For `COCC1(C(=O)N2C[C@@H]3CC2CN3c2nc(-c3cnn(C)c3)ncc2C#N)CC1` (stereo in doubt) [Compound 2-8, 4-[(1S,4R)-5-{[1-(methoxymethyl)cyclopropyl]carbonyl}-2,5-diazabicyclo[2.2.1]hept-2-yl]-2-(1-methyl-1H-pyrazol-4-yl)pyrimidine-5-carbonitrile], in assay [1], the “Selectivity versus PI3Kalpha” value is recorded as over 10. In assay [2], this compound came in with an IC50 of 270 nM.
`Cn1cc(-c2ncc(C#N)c(N3CC4C[C@H]3CN4C(=O)C3CCC3)n2)cn1` (stereo in doubt) [Compound 2-9, 4-[(1S,4R)-5-(cyclobutylcarbonyl)-2,5-diazabicyclo[2.2.1]hept-2-yl]-2-(1-methyl-1H-pyrazol-4-yl)pyrimidine-5-carbonitrile]: the “Selectivity versus PI3Kalpha” value in assay [1] is over 10. In addition, in assay [2], half-maximal inhibition (IC50) was put at 330 nM.
For the compound `Cn1cc(-c2ncc(C#N)c(N3CC4C[C@H]3CN4C(=O)c3cccs3)n2)cn1` (stereo in doubt) [Compound 2-10, 2-(1-methyl-1H-pyrazol-4-yl)-4-[(1S,4R)-5-(thiophen-2-ylcarbonyl)-2,5-diazabicyclo[2.2.1]hept-2-yl]pyrimidine-5-carbonitrile], the “Selectivity versus PI3Kalpha” value in assay [1] is reported as over 10. The compound further gave an IC50 in assay [2] of 500 nM.
With `Cn1cc(-c2ncc(C#N)c(N3CC4C[C@H]3CN4C(=O)c3cocn3)n2)cn1` (stereo in doubt) [Compound 2-11, 2-(1-methyl-1H-pyrazol-4-yl)-4-[(1S,4R)-5-(1,3-oxazol-4-ylcarbonyl)-2,5-diazabicyclo[2.2.1]hept-2-yl]pyrimidine-5-carbonitrile], the “Selectivity versus PI3Kalpha” value in assay [1] is over 10. In assay [2], this compound had an IC50 of 1100 nM.
On to `Cn1cc(-c2ncc(C#N)c(N3CC4C[C@H]3CN4C(=O)CC3COC3)n2)cn1` (stereo in doubt) [Compound 2-12, 2-(1-methyl-1H-pyrazol-4-yl)-4-[(1S,4R)-5-(oxetan-3-ylacetyl)-2,5-diazabicyclo[2.2.1]hept-2-yl]pyrimidine-5-carbonitrile], for which the “Selectivity versus PI3Kalpha” value in assay [1] is 10. The compound also returned an IC50 in assay [2] of 480 nM.
The corresponding values for `CC(C)S(=O)(=O)N1C[C@@H]2CC1CN2c1nc(-c2cnn(C)c2)ncc1C#N` (stereo in doubt) [Compound 2-13, 4-{(1S,4R)-5-[(1-methylethyl)sulfonyl]-2,5-diazabicyclo[2.2.1]hept-2-yl}-2-(1-methyl-1H-pyrazol-4-yl)pyrimidine-5-carbonitrile] are over 10 and 470 nM.
As to `CCCS(=O)(=O)N1C[C@@H]2CC1CN2c1nc(-c2cnn(C)c2)ncc1C#N` (stereo in doubt) [Compound 2-14, 2-(1-methyl-1H-pyrazol-4-yl)-4-[(1S,4R)-5-(propylsulfonyl)-2,5-diazabicyclo[2.2.1]hept-2-yl]pyrimidine-5-carbonitrile], the “Selectivity versus PI3Kalpha” value in assay [1] is recorded as over 10. This compound also yielded an IC50 in assay [2] of 620 nM.
As to `Cn1cc(-c2ncc(C#N)c(N3CC4C[C@H]3CN4S(=O)(=O)C3CCCC3)n2)cn1` (stereo in doubt) [Compound 2-15, 4-[(1S,4R)-5-(cyclopentylsulfonyl)-2,5-diazabicyclo[2.2.1]hept-2-yl]-2-(1-methyl-1H-pyrazol-4-yl)pyrimidine-5-carbonitrile], the “Selectivity versus PI3Kalpha” value in assay [1] was over 10. This compound also had an IC50 in assay [2] of 650 nM.
For the compound `Cn1cc(-c2ncc(C#N)c(N3CC4C[C@H]3CN4CCCF)n2)cn1` (stereo in doubt) [Compound 2-16, 4-[(1S,4R)-5-(3-fluoropropyl)-2,5-diazabicyclo[2.2.1]hept-2-yl]-2-(1-methyl-1H-pyrazol-4-yl)pyrimidine-5-carbonitrile], in assay [1], the “Selectivity versus PI3Kalpha” value is reported as over 10. The compound further gave a half-maximal inhibitory concentration (IC50) in assay [2] of 970 nM.
For `N#Cc1cnc(-c2cn[nH]c2)nc1N1C[C@@H]2C[C@H]1CN2c1cccc(F)c1` [Compound 1-7, 4-[(1S,4S)-5-(3-fluorophenyl)-2,5-diazabicyclo[2.2.1]hept-2-yl]-2-(1H-pyrazol-4-yl)pyrimidine-5-carbonitrile], the “Selectivity versus PI3Kalpha” value in assay [1] is over 10. In assay [2], this compound showed an IC50 of 42 nM.
The corresponding values for `Cn1cc(-c2ncc(C#N)c(N3C[C@@H]4C[C@H]3CN4c3cccc(F)c3)n2)cn1` [Compound 1-16, 4-[(1S,4S)-5-(3-fluorophenyl)-2,5-diazabicyclo[2.2.1]hept-2-yl]-2-(1-methyl-1H-pyrazol-4-yl)pyrimidine-5-carbonitrile] are over 10 and 31 nM.
As to `Cn1cc(-c2ncc(C#N)c(N3CCN(c4cccc(F)c4)C(C)(C)C3)n2)cn1` [Compound 3-1, 4-[4-(3-fluorophenyl)-3,3-dimethylpiperazin-1-yl]-2-(1-methyl-1H-pyrazol-4-yl)pyrimidine-5-carbonitrile], in assay [1], the “Selectivity versus PI3Kalpha” value is recorded as 8. The IC50 in assay [2] is 1500 nM.
Regarding `Cn1cc(-c2ncc(C#N)c(N3CCN(c4cccc(F)c4)CC3)n2)cn1` [Compound 3-2, 4-[4-(3-fluorophenyl)piperazin-1-yl]-2-(1-methyl-1H-pyrazol-4-yl)pyrimidine-5-carbonitrile], the “Selectivity versus PI3Kalpha” value in assay [1] worked out at 7. For the same compound, the IC50 in assay [2] came to 1600 nM.
In the case of `C[C@@H]1CN(c2nc(-c3cnn(C)c3)ncc2C#N)CCN1c1cccc(F)c1` [Compound 3-3, 4-[(3R)-4-(3-fluorophenyl)-3-methylpiperazin-1-yl]-2-(1-methyl-1H-pyrazol-4-yl)pyrimidine-5-carbonitrile], the “Selectivity versus PI3Kalpha” value in assay [1] is over 10. This compound also displayed an IC50 in assay [2] of 170 nM.
Turning to `Cn1cc(-c2ncc(C#N)c(N3CC4CCC(C3)N4c3cccc(F)c3)n2)cn1` [Compound 3-4, 4-[8-(3-fluorophenyl)-3,8-diazabicyclo[3.2.1]oct-3-yl]-2-(1-methyl-1H-pyrazol-4-yl)pyrimidine-5-carbonitrile], the “Selectivity versus PI3Kalpha” value in assay [1] was over 10. This compound yielded an IC50 in assay [2] of 1000 nM.
The like results for `C[C@@H]1CN(c2nc(-c3cnn(C)c3)ncc2C#N)CCN1C(=O)C1CC1` [Compound 4-1, 4-[(3R)-4-(cyclopropylcarbonyl)-3-methylpiperazin-1-yl]-2-(1-methyl-1H-pyrazol-4-yl)pyrimidine-5-carbonitrile] were, in that order, over 10 and 110 nM.
Turning to `CCC(=O)N1CCN(c2nc(-c3cnn(C)c3)ncc2C#N)C[C@H]1C` [Compound 4-2, 4-[(3R)-3-methyl-4-propanoylpiperazin-1-yl]-2-(1-methyl-1H-pyrazol-4-yl)pyrimidine-5-carbonitrile], the “Selectivity versus PI3Kalpha” value in assay [1] was over 10. Inhibition in assay [2] was half-maximal at 260 nM (IC50).
Take `C[C@@H]1CN(c2nc(-c3cnn(C)c3)ncc2C#N)CCN1C(=O)C1CCC1` [Compound 4-3, 4-[(3R)-4-(cyclobutylcarbonyl)-3-methylpiperazin-1-yl]-2-(1-methyl-1H-pyrazol-4-yl)pyrimidine-5-carbonitrile]: the “Selectivity versus PI3Kalpha” value in assay [1] is over 10. The same compound showed an IC50 in assay [2] of 370 nM.

The values above are taken from patent US11230547B2, “Purine inhibitors of human phosphatidylinositol 3-kinase delta” (Merck Sharp & Dohme Corp., priority 2017, dated 2022).
